The values that follow come from patent publication US7276527B2, “5-pyridyl-1,3-azole compounds, process for producing the same and use thereof” (Takeda Pharmaceutical Company Limited, priority 1999, dated 2007).

`Cc1cccc(-c2nc(-c3ccc(S(C)(=O)=O)cc3)sc2-c2ccnc(NCc3cccs3)c2)c1` [Example Compound 25-5, N-[4-[4-(3-methylphenyl)-2-(4-methylsulfonylphenyl)-1,3-thiazol-5-yl]-2-pyridyl]-N-(2-thienylmethyl)amine] gave a melting point of 107 to 109 °C. As for `CSc1ccc(-c2nc(-c3cccc(C)c3)c(-c3ccnc(NC(=O)c4ccc5ccccc5c4)c3)s2)cc1` [Example Compound 16-18, N-[4-[4-(3-methylphenyl)-2-(4-methylthiophenyl)-1,3-thiazol-5-yl]-2-pyridyl]-2-naphthamide], the figure is 184 to 186 °C. Turning to `Cc1cccc(-c2nc(-c3ccccc3Cl)sc2-c2ccnc(NC(=O)CCc3ccccc3)c2)c1` [Example Compound 16-14, N-[4-[2-(2-chlorophenyl)-4-(3-methylphenyl)-1,3-thiazol-5-yl]-2-pyridyl]-3-phenylpropionamide], the melting point is 156 to 158 °C. As for `Cc1cccc(-c2nc(-c3ccccc3Cl)sc2-c2ccnc(NC(=O)c3ccccc3)c2)c1` [Example Compound 16-13, N-(4-[2-(2-chlorophenyl)-4-(3-methylphenyl)-1,3-thiazol-5-yl]-2-pyridyl]benzamide], the figure is 138 to 140 °C; as for `CCc1nc(-c2cccc(C)c2)c(-c2ccnc(NC(=O)CCc3ccc(F)cc3)c2)s1` [Example Compound 16-4, N-[4-[2-ethyl-4-(3-methylphenyl)-1,3-thiazol-5-yl]-2-pyridyl]-3-(4-fluorophenyl)propionamide], 116 to 117 °C; as for `CCCCc1nc(-c2cccc(C)c2)c(-c2ccnc(NC(=O)CCc3ccccc3)c2)s1` [Example Compound 16-10, N-[4-[2-butyl-4-(3-methylphenyl)-1,3-thiazol-5-yl]-2-pyridyl]-3-phenylpropionamide], 77 to 78 °C. `Cc1cccc(-c2nc(N)sc2-c2ccnc(NCc3ccc(Cl)cc3)c2)c1` [Example Compound 23-4, N-[4-[2-amino-4-(3-methylphenyl)-1,3-thiazol-5-yl]-2-pyridyl]-N-(4-chlorobenzyl)amine] came in with a melting point of 182 to 183 °C.

As to `Cc1cccc(-c2nc(N)sc2-c2ccnc(N[C@H](C)c3ccccc3)c2)c1` [Example Compound 23-6, (R)-N-[4-[2-amino-4-(3-methylphenyl)-1,3-thiazol-5-yl]-2-pyridyl]-N-(1-phenylethyl)amine], the melting point is 94 to 98 °C.

In turn, `Cc1cccc(-c2nc(-c3ccccc3Cl)sc2-c2ccnc(NCCCc3ccccc3)c2)c1` [Example Compound 19-16, N-[4-[2-(2-chlorophenyl)-4-(3-methylphenyl)-1,3-thiazol-5-yl]-2-pyridyl]-N-(3-phenylpropyl)amine] registered a melting point of 101 to 102 °C. As for `Cc1cccc(-c2nc(N)sc2-c2ccnc(NCc3cccc(Cl)c3)c2)c1` [Example Compound 23-5, N-[4-[2-amino-4-(3-methylphenyl)-1,3-thiazol-5-yl]-2-pyridyl]-N-(3-chlorobenzyl)amine], the figure is 180 to 181 °C; as for `COc1ccccc1CNc1cc(-c2sc(N)nc2-c2cccc(C)c2)ccn1` [Example Compound 23-3, N-[4-[2-amino-4-(3-methylphenyl)-1,3-thiazol-5-yl]-2-pyridyl]-N-(2-methoxybenzyl)amine], 158 to 159 °C; as for `Cc1cccc(-c2nc(-c3ccc(S(C)(=O)=O)cc3)sc2-c2ccnc(N(C)Cc3ccccc3)c2)c1` [Example Compound 25-3, N-benzyl-N-methyl-N-[4-[4-(3-methylphenyl)-2-(4-methylsulfonylphenyl)-1,3-thiazol-5-yl]-2-pyridyl]amine], 165 to 166 °C. In the case of `Cc1cccc(-c2nc(-c3ccc(F)cc3)sc2-c2ccnc(NCCc3ccccc3)c2)c1` [Example Compound 19-12, N-[4-[2-(4-fluorophenyl)-4-(3-methylphenyl)-1,3-thiazol-5-yl]-2-pyridyl]-N-(2-phenylethyl)amine], the melting point is 97 to 98 °C.

With `Cc1cccc(-c2nc(N)sc2-c2ccnc(N(C)Cc3ccccc3)c2)c1` [Example Compound 23-8, N-[4-[2-amino-4-(3-methylphenyl)-1,3-thiazol-5-yl]-2-pyridyl]-N-benzyl-N-methylamine], the melting point fell in the range of 138 to 140 °C. Molecule `COc1ccc(-c2nc(C)sc2-c2ccnc(NCc3ccccc3)c2)cc1` [Example Compound 19-1, N-benzyl-N-[4-[4-(4-methoxyphenyl)-2-methyl-1,3-thiazol-5-yl]-2-pyridyl]amine] came in with a melting point of 132 to 133 °C. Turning to `CSc1ccc(-c2nc(-c3cccc(C)c3)c(-c3ccnc(NC(=O)c4cccs4)c3)s2)cc1` [Example Compound 16-17, N-[4-[4-(3-methylphenyl)-2-(4-methylthiophenyl)-1,3-thiazol-5-yl]-2-pyridyl]-2-thiophenecarboxamide], the melting point lay in the range of 145 to 147 °C. As for `CSc1ccc(-c2nc(-c3cccc(C)c3)c(-c3ccnc(NCc4ccccc4)c3)s2)cc1` [Example Compound 19-17, N-benzyl-N-[4-[4-(3-methylphenyl)-2-(4-methylthiophenyl)-1,3-thiazol-5-yl]-2-pyridyl]amine], the figure is 134 to 136 °C; as for `COc1ccc(-c2nc(C)sc2-c2ccnc(NC(=O)Cc3ccccc3)c2)cc1` [Example Compound 15-1, N-[4-[4-(4-methoxyphenyl)-2-methyl-1,3-thiazol-5-yl]-2-pyridyl]phenylacetamide], 118 to 120 °C. For `Cc1cccc(-c2nc(-c3ccc(S(C)(=O)=O)cc3)sc2-c2ccnc(NCCCc3ccccc3)c2)c1` [Example Compound 21-6, N-[4-[4-(3-methylphenyl)-2-(4-methylsulfonylphenyl)-1,3-thiazol-5-yl]-2-pyridyl]-N-(3-phenylpropyl) amine], the melting point fell in the range of 167 to 168 °C. With `CSc1ccc(-c2nc(-c3cccc(C)c3)c(-c3ccnc(NC(=O)CCc4ccccc4)c3)s2)cc1` [Example Compound 16-16, N-[4-[4-(3-methylphenyl)-2-(4-methylthiophenyl)-1,3-thiazol-5-yl]-2-pyridyl]-3-phenylpropionamide] the figure was 174 to 175 °C; with `Cc1cccc(-c2nc(-c3ccccc3Cl)sc2-c2ccnc(NCc3ccccc3)c2)c1` [Example Compound 19-14, N-benzyl-N-[4-[2-(2-chlorophenyl)-4-(3-methylphenyl)-1,3-thiazol-5-yl]-2-pyridyl]amine], 84 to 86 °C; with `Cc1cccc(-c2nc(-c3ccc(F)cc3)sc2-c2ccnc(NCCCc3ccccc3)c2)c1` [Example Compound 19-13, N-[4-[2-(4-fluorophenyl)-4-(3-methylphenyl)-1,3-thiazol-5-yl]-2-pyridyl]-N-(3-phenylpropyl)amine], 110 to 112 °C. As for `Cc1cccc(-c2nc(N)sc2-c2ccnc(N[C@@H](C)c3ccccc3)c2)c1` [Example Compound 23-7, (S)-N-[4-[2-amino-4-(3-methylphenyl)-1,3-thiazol-5-yl]-2-pyridyl]-N-(1-phenylethyl)amine], the figure is 93 to 96 °C.

`CCc1nc(-c2cccc(C)c2)c(-c2ccnc(NC(=O)CCc3ccc(OC)cc3)c2)s1` [Example Compound 16-3, N-[4-[2-ethyl-4-(3-methylphenyl)-1,3-thiazol-5-yl]-2-pyridyl]-3-(4-methoxyphenyl)propionamide] came in with a melting point of 137 to 138 °C. As for `Cc1cccc(-c2nc(-c3ccc(F)cc3)sc2-c2ccnc(NCc3ccccc3)c2)c1` [Example Compound 19-11, N-benzyl-N-[4-[2-(4-fluorophenyl)-4-(3-methylphenyl)-1,3-thiazol-5-yl]-2-pyridyl]amine], the figure is 143 to 146 °C. With `Cc1cccc(-c2nc(-c3ccccc3Cl)sc2-c2ccnc(NCCc3ccccc3)c2)c1` [Example Compound 19-15, N-[4-[2-(2-chlorophenyl)-4-(3-methylphenyl)-1,3-thiazol-5-yl]-2-pyridyl]-N-(2-phenylethyl)amine], the melting point was in the range of 113 to 114 °C. As for `Cc1cccc(-c2nc(-c3ccc(S(C)(=O)=O)cc3)sc2-c2ccnc(NC(=O)CCc3ccccc3)c2)c1` [Example Compound 21-2, N-[4-[4-(3-methylphenyl)-2-(4-methylsulfonylphenyl)-1,3-thiazol-5-yl]-2-pyridyl]-3-phenylpropionamide], the figure is 236 to 237 °C. Take `Cc1cccc(-c2nc(-c3ccc(F)cc3)sc2-c2ccnc(NC(=O)CCc3ccccc3)c2)c1` [Example Compound 16-12, N-[4-[2-(4-fluorophenyl)-4-(3-methylphenyl)-1,3-thiazol-5-yl]-2-pyridyl]-3-phenylpropionamide]: the melting point is 169 to 171 °C. `CSc1ccc(-c2nc(-c3cccc(C)c3)c(-c3ccnc(NCCCc4ccccc4)c3)s2)cc1` [Example Compound 19-19, N-[4-[4-(3-methylphenyl)-2-(4-methylthiophenyl)-1,3-thiazol-5-yl]-2-pyridyl]-N-(3-phenylpropyl)amine] came in with a melting point of 106 to 107 °C. With `Cc1cccc(-c2nc(-c3ccc(F)cc3)sc2-c2ccnc(NC(=O)c3ccccc3)c2)c1` [Example Compound 16-11, N-[4-[2-(4-fluorophenyl)-4-(3-methylphenyl)-1,3-thiazol-5-yl]-2-pyridyl]benzamide] the figure was 126 to 128 °C; with `Cc1cccc(-c2nc(-c3ccc(S(C)(=O)=O)cc3)sc2-c2ccnc(NCc3ccc4ccccc4c3)c2)c1` [Example Compound 21-7, N-[4-[4-(3-methylphenyl)-2-(4-methylsulfonylphenyl)-1,3-thiazol-5-yl]-2-pyridyl]-N-(2-naphthylmethyl)amine], 167 to 168 °C. With `Cc1cccc(-c2nc(-c3ccc(S(C)(=O)=O)cc3)sc2-c2ccnc(NC(=O)c3ccc4ccccc4c3)c2)c1` [Example Compound 21-4, N-[4-[4-(3-methylphenyl)-2-(4-methylsulfonylphenyl)-1,3-thiazol-5-yl]-2-pyridyl]-2-naphthamide] the figure was 231 to 233 °C.

The melting point is the temperature, or range, at which the solid turns liquid.
